One series deals with HIV-2(ROD). The experiment in a line: microbe, parasite or virus in culture. As for the experimental part:
(§1) MT-4, C8166 or CEM cells (4 to 5×10^5 cells per ml) were suspended in fresh culture medium (RPMI-1640 medium supplemented with 10% fetal bovine serum (FBS) (BioWittaker Europe, Verviers, Belgium), 2 mM L-glutamine and […] NaHCO3). Subsequently, the cells were infected with HIV-1 (IIIB) or HIV-2(ROD) at ˜100 CCID50 (1 CCID50 being the dose infective for 50% of the cell cultures) per ml of cell suspension. Then, 100 μl of the infected cell suspension were transferred to 96-well microplate wells, mixed with 100 μl of the appropriate (5-fold) dilutions of the test compounds and further incubated at 37° C. After 4 to 5 days, giant cell formation was recorded microscopically in the CEM and C8166 cell cultures. The MT-4 cell cultures were treated with trypan blue and the number of viable cells was determined.

Series [1] concerns HIV-1 (IIIB). Put plainly: microbe, parasite or virus in culture. On the procedure: as §1
In series [2] the test system is HIV-1 (IIIB). Put plainly: microbe, parasite or virus in culture. The note with it: Human immunodeficiency virus 1, IIIB, CCRF-CEM.
Series [3] has as its system HIV (SF2 virus). Put plainly: HIV infectivity assay, SF2-infected H9 cells, reverse transcriptase (RT) quantification in supernatant. It is filed as cell-based. The following applies: for inhibition of HIV replication, reverse transcriptase (RT) activity: cultures containing boiled fetal calf serum.
For series [4], the system named is HIV (SF2 virus). Put plainly: HIV infectivity assay, SF2-infected H9 cells, p24 quantification. It is filed as cell-based. The note with it: for OD1: replicates (1)-(3). As for the experimental part: The remaining wells were filled with sterile distilled water. The cell culture plates were incubated at 37° C. and 5% CO2. After four days the medium was changed, after eight days the medium was changed and the cells were collected. After 11 days, the infection was stopped, the cells were viewed in a 10× magnification microscope and 650 μl of each cell supernatant was collected and frozen at −80° C. for further analysis. After five more days, the supernatants were thawed and used in a conventional reverse transcriptase (RT) activity assay (e.g., Roche AMPLICOR MONITOR™) or a p24 quantification assay (e.g., Abbott Laboratories, Chicago). (See U.S. Pat. No. 6,258,932 and U.S. patent application Ser. No. 10/235,158, both of which are hereby expressly incorporated by reference in its entireties).
[…] The cells in the samples were counted and then centrifuged. The cells were then resuspended in 10 ml of RPMI 1640 (containing fetal calf serum) and either […] Metabolite X or 100 μM GPG-NH2. Uninfected control and untreated control samples were also included in the experiment. The samples were then incubated overnight at 37° C. at 5% CO2.
Then, the amount of p24 in the samples was analysed using a conventional p24 detection assay (see U.S. Pat. No. 6,258,932).
Three replicate samples (“replicates”) of uninfected samples and untreated samples were also included in the experiment as controls. The inhibition of HIV replication was monitored by quantifying the levels of p24 using a conventional detection kit.
Three replicates of unninfected samples and untreated samples were also included in the experiment as controls.

Series [5] concerns HIV (SF2 virus). Put plainly: HIV infectivity assay, SF2-infected H9 cells, visible syncytia. It is filed as cell-based. The note with it: for Visible syncytia: H9/SF2, day 11.
Series [6] concerns HIV-1 (IIIB).
[7] abbreviates: read-out: EC50 (CEM) HIV-1 (IIIB), Table 19.
[8] abbreviates: read-out: EC50 against HIV-1(IIIB), CEM cell cultures, Table 2.

Where “and” joins values, the source holds several entries; their conditions need not be identical. Identical values can stand only once. Entries after “also recorded” stand apart in the source; their conditions may differ. Like-named read-outs stand apart in the source and are kept apart here.

The term EC50 denotes the midpoint of the concentration-response curve. A word on the melting point: it is the temperature of the solid-liquid transition.

Take `NC(=O)C(N)=O` [Oxamide, Oxamide (H2NCOCONH2), reference compound]: the EC50 with HIV-2(ROD) (Human immunodeficiency virus 2, MT4, read-out: EC50 (MT-4) HIV-2 (ROD), Table 19) was greater than 500 µM; in the series with HIV-1 (IIIB) [1] (Human immunodeficiency virus 1, IIIB, MT4, read-out: EC50 (MT-4) HIV-1 (IIIB)), greater than 500 µM; in the series on HIV-1 (IIIB) [2] (setting [7]) it was greater than 500 µM.

`CCOC(N)C(=O)NC(=O)OCc1ccccc1` (stereo not drawn) [Example 25, α-ethoxy-N-benzyloxycarbonylglycinamide] gave a melting point of 119 to 121 °C.

As to `CNCC(N)=O` [Sarcosinamide], the EC50 in the series on HIV-1 (IIIB) [2] (setting [8]) is greater than 1000 µM.

For the compound `CC(C)C[C@H](N)C(=O)O` [L-Leucine], the EC50 with HIV-1 (IIIB) [2] (setting [8]) was greater than 500 µM.

In the case of `NC(=O)[C@@H](N)CO` [L-Serinamide], in the series with HIV-1 (IIIB) [2] (setting [8]), the EC50 was greater than 1000 µM.

For `NCCCC[C@H](N)C(N)=O` [L-Lysinamide], the concentration giving a half-maximal response (EC50) in the series on HIV-1 (IIIB) [2] (read-out: EC50 against HIV-1(IIIB)) was greater than 500 µM.

On to `CCOC(=O)C(NC(=O)OCc1ccccc1)OCC` (stereo not drawn) [Example 23, α-ethoxy-N-benzyloxycarbonylglycine ethyl ester], for which the melting point was in the range of 66 to 68 °C.

As to `NCC(N)C(=O)O` (racemic) [DL-2,3-diaminopropionic acid], the concentration giving a half-maximal response (EC50) in the series with HIV-1 (IIIB) [2] (setting [8]) was greater than 1000 µM.

With `C[C@@H](O)[C@H](N)C(N)=O` [L-Threoninamide], in the series on HIV-1 (IIIB) [2] (setting [8]), the EC50 was greater than 500 µM.

`NC(=O)C[C@@H](N)C(=O)O` [D-Asparagine]: in the series with HIV-1 (IIIB) [2] (setting [8]), the EC50 was greater than 500 µM.

Consider `CC(C)C[C@H](N)C(N)=O` [L-Leucinamide], for which the half-maximal effective concentration (EC50) with HIV-1 (IIIB) [2] (setting [8]) is greater than 500 µM.

As to `CC(C)C[C@@H](N)C(=O)O` [D-Leucine], in the series on HIV-1 (IIIB) [2] (setting [8]), the EC50 was greater than 1000 µM.

In the case of `CC(C)CC(N)C(N)=O` (racemic) [DL-Leucinamide], the 50% effective concentration (EC50) in the series on HIV-1 (IIIB) [2] (setting [8]) is greater than 500 µM.

Take `NC(=O)[C@@H](N)Cc1ccc(O)cc1` [L-Tyrosinamide]: the concentration giving a half-maximal response (EC50) in the series with HIV-1 (IIIB) [2] (setting [8]) was greater than 500 µM.

Take `NCCN` [Ethylene diamine]: in the series on HIV-1 (IIIB) [2] (setting [8]), the half-maximal effective concentration (EC50) is greater than 1000 µM.

In the case of `NC(=O)C(N)Cc1ccccc1` (racemic) [DL-Phenylalaninamide], the 50% effective concentration (EC50) with HIV-1 (IIIB) [2] (setting [8]) was greater than 1000 µM.

In the case of `CC[C@H](C)[C@H](N)C(N)=O` [L-Isoleucinamide], the EC50 with HIV-1 (IIIB) [2] (setting [8]) was greater than 500 µM.

With `NC(=O)C(N)O` (stereo not drawn) [Met-X, α-hydroxyglycinamide], the “reverse transcriptase activity in treated samples” value with HIV (SF2 virus) [3] (100 μM, fetal calf serum) is “no reverse transcriptase activity”. Also, the “inhibition of HIV replication, reverse transcriptase (RT) activity” value was “inhibited the replication of HIV” in the series with HIV (SF2 virus) [3] and “effectively inhibited replication HIV” with HIV (SF2 virus) [3] (listed as Metabolite X). In addition, the “concentration at which inhibition of HIV replication is virtually complete” value in the series with HIV (SF2 virus) [3] (fetal bovine serum, 10 days) was no less than 15.6 µM. The OD1 with HIV (SF2 virus) [4] (50 μM, fetal calf serum) is 1.105 and 1.895 and 2.351; in the series on HIV (SF2 virus) [4] (100 μM, fetal calf serum) it was 0.193 and 0.081 and 0.144. Besides, the “conc p24” value in the series with HIV (SF2 virus) [4] (50 μM, human serum) was 457.33 ng/mL and 427.85 ng/mL and 261.05 ng/mL. Further, the “inhibition of HIV replication, p24” value with HIV (SF2 virus) [4] (100 μM, presence of fetal calf serum) was “effectively inhibited HIV replication”. In the series with HIV (SF2 virus) [4] (fetal calf serum), the “inhibition of HIV, accumulation of p24, compared with reference” value is recorded as “as effectively as GPG-NH2; also recorded: as effectively as G-NH2”. Also, the “inhibition of HIV replication, accumulation of p24” value is given as “inhibited HIV replication in human serum” with HIV (SF2 virus) [4] (human serum) and “effective inhibitors of HIV replication in human serum” with HIV (SF2 virus) [4] (human serum, listed as Metabolite X). Moreover, the Visible syncytia entry in the series on HIV (SF2 virus) [5] (100 μM in boiled RPMI++), with HIV (SF2 virus) [5] (100 μM in normal RPMI++ (10% FCS)), in the series with HIV (SF2 virus) [5] (500 μM in boiled RPMI++) and with HIV (SF2 virus) [5] (500 μM in normal RPMI++ (10% FCS)) was “negative” throughout. Also, in the series on HIV (SF2 virus) [5] (boiled fetal calf serum), the “inhibition of replication and/or propagation of HIV by visual inspection” value was “effectively inhibited”. Also, in the series on HIV-1 (IIIB) [6] (boiled fetal bovine serum or human serum samples, results the experiments will show), the “inhibition of replication of HIV” value is “efficiently inhibits replication of HIV”.

`NCC(=O)CN` [1,3-diaminoaceton]: the EC50 in the series on HIV-1 (IIIB) [2] (setting [8]) is greater than 1000 µM.

For `NC(=O)CO` [Glycolamide, Glycolamide (HO—CH2—CO—NH2), reference compound], the half-maximal effective concentration (EC50) in the series with HIV-2(ROD) (read-out: EC50 (MT-4) HIV-2 (ROD), Table 19) is greater than 500 µM; in the series on HIV-1 (IIIB) [1] (read-out: EC50 (MT-4) HIV-1 (IIIB), Table 19), greater than 500 µM; in the series with HIV-1 (IIIB) [6] (setting [7]) it was greater than 500 µM.

`NC(=O)C(N)Cc1c[nH]c2ccccc12` (racemic) [DL-Tryptophanamide]: the EC50 in the series on HIV-1 (IIIB) [2] (setting [8]) is greater than 500 µM.

`CC(C)(C)OC(=O)NC(=O)C(N)OCc1ccccc1` (stereo not drawn) [Example 20, α-benzyloxy-N-tert-butoxycarbonylglycinamide] registered a melting point of 115 to 120 °C.

Consider `NCC(O)CN` [1,3-diamino-2-hydroxypropane], for which the EC50 with HIV-1 (IIIB) [2] (setting [8]) was greater than 1000 µM.

Take `NCC(N)=S` [Glycin-thioamide, reference compound]: the EC50 in the series on HIV-1 (IIIB) [6] (setting [8]) is greater than 500 µM.

As to `CC(C)[C@H](N)C(N)=O` [L-Valinamide], the EC50 with HIV-1 (IIIB) [2] (setting [8]) is greater than 500 µM.

`CC(C)OC(N)C(=O)NC(=O)OCc1ccccc1` (stereo not drawn) [Example 26, α-isopropoxy-N-benzyloxycarbonylglycinamide]: the melting point lay within 111 to 113 °C.

In the case of `CNC(=O)CN` [Glycine methylamide], the half-maximal effective concentration (EC50) in the series with HIV-1 (IIIB) [2] (setting [8]) was greater than 500 µM.

As to `NCC(=O)O` [Glycine], in the series with HIV-1 (IIIB) [2] (setting [8]), the EC50 was greater than 500 µM.

On to `NC(=O)[C@@H](N)Cc1c[nH]c2ccccc12` [L-Tryptophanamide], for which the EC50 with HIV-1 (IIIB) [2] (setting [8]) is greater than 200 µM.

Take `NC(=O)[C@@H](N)Cc1ccccc1` [L-Phenylalaninamide]: in the series with HIV-1 (IIIB) [2] (setting [8]), the EC50 was greater than 500 µM.

Regarding `NC(=O)[C@@H]1CCCN1` [L-Prolinamide], the EC50 in the series on HIV-1 (IIIB) [2] (setting [8]) was greater than 1000 µM.

Turning to `CSCC[C@H](N)C(N)=O` [L-Methioninamide], the concentration for a half-maximal effect (EC50) with HIV-1 (IIIB) [2] (setting [8]) was greater than 500 µM.

In the case of `NC(=O)C[C@H](N)C(N)=O` [L-Asparaginamide, reference compound], the values for the EC50 in the series with HIV-1 (IIIB) [6] (setting [8]) and in the series on HIV-1 (IIIB) [2] (setting [8]) were greater than 1000 µM and greater than 500 µM, respectively.

As to `C[C@H](N)C(=O)O` [L-Alanine], the EC50 in the series on HIV-1 (IIIB) [2] (setting [8]) is greater than 500 µM.

In the case of `COC(N)C(=O)NC(=O)OCc1ccccc1` (stereo not drawn) [Example 22, α-methoxy-N-benzyloxycarbonylglycinamide], the melting point was 110 to 112 °C.

As to `C[C@H](N)C(N)=O` [L-Alaninamide], the concentration for a half-maximal effect (EC50) with HIV-1 (IIIB) [2] (setting [8]) was greater than 500 µM.

With `N=C(N)NCCC[C@H](N)C(N)=O` [L-Argininamide], the concentration for a half-maximal effect (EC50) in the series on HIV-1 (IIIB) [2] (setting [8]) was greater than 500 µM.

For `CC(C)[C@H](N)C(=O)Nc1ccc2ccccc2c1` [L-Val β-naphthylamide, reference compound], in the series with HIV-1 (IIIB) [6] (setting [8]), the half-maximal effective concentration (EC50) is greater than 100 µM.

In the case of `O=C(O)[C@@H]1CCCN1` [L-Proline], the EC50 in the series on HIV-1 (IIIB) [2] (setting [8]) was greater than 500 µM.

The values above are taken from patent publication US20080076824A1, “Compounds That Inhibit Replication Of Human Immunodeficiency Virus” (priority 2004, published 2008).
